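Each compound was tested at five concentrations against cells in 96-well plates for 48 hours. Definition used: TGI = concentration required for complete inhibition of growth.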
Key:
Experiment in all cases: inhibition of tumour cell growth, NCI panel, 48 h
[1] = system: NCI-H226 lung
[2] = system: OVCAR-4 ovarian
[3] = system: UO-31 renal
[4] = system: 786-0 renal
[5] = system: IGROV1 ovarian
[6] = system: K-562 leukemia
[7] = system: RXF-631 renal
[8] = system: HOP-92 NSCLC
[9] = system: OVCAR-5 ovarian
[10] = system: SF-295 CNS
[11] = system: RXF 393 renal
[12] = system: SN12C renal
[13] = system: CCRF-CEM leukemia
[14] = system: MALME-3M melanoma
[15] = system: HOP-62 NSCLC
[16] = system: OVCAR-8 ovarian
[17] = system: KM20L2 colon
[18] = system: SNB-19 CNS
[19] = system: SF-268 CNS
[20] = system: UACC-257 melanoma
[21] = system: SNB-78 CNS
[22] = system: XF 498 CNS
[23] = system: A498 renal
[24] = system: UACC-62 melanoma
[25] = system: TK-10 renal
[26] = system: DMS 273 small cell lung
[27] = system: MOLT-4 leukemia
[28] = system: KM12 colon
[29] = system: HT29 colon
[30] = system: LXFL 529 NSCLC
[31] = system: SF-539 CNS
[32] = system: ACHN renal
[33] = system: CAKI-1 renal
[34] = system: SK-OV-3 ovarian
[35] = system: HL-60(TB) leukemia
[36] = system: NCI-H522 lung
[37] = system: M14 melanoma
[38] = system: COLO 205 colon
[39] = system: SR leukemia
[40] = system: M19-MEL melanoma
[41] = system: HCT-116 colon
[42] = system: SK-MEL-2 melanoma
[43] = system: NCI-H23 lung
[44] = system: HCC-2998 colon
[45] = system: RPMI-8226 leukemia
[46] = system: SNB-75 CNS
[47] = system: DMS 114 small cell lung
[48] = system: DLD-1 colon
[49] = system: SK-MEL-28 melanoma
[50] = system: EKVX NSCLC
[51] = system: U251 CNS
[52] = system: PC-3 prostate
[53] = system: MDA-MB-231 breast
[54] = system: BT-549 breast
[55] = system: LOX IMVI melanoma
[56] = system: HS 578T breast
[57] = system: MDA-MB-435
[58] = system: MDA-N
[59] = system: OVCAR-3 ovarian
[60] = system: MCF7 breast
[61] = system: DU-145 prostate
[62] = system: SW-620 colon
[63] = system: NCI/ADR-RES ovarian
[64] = system: A549 NSCLC
[65] = system: SK-MEL-5 melanoma
[66] = system: HCT-15 colon
[67] = system: NCI-H460 lung
[68] = system: T-47D breast

FC(F)(F)c1cc(C2SCc3nc4ccccc4n32)cc(C(F)(F)F)c1 (stereo not given)
TGI [1]: > 100 µM
TGI [2]: > 100 µM
TGI [3]: > 100 µM
TGI [4]: > 100 µM
TGI [5]: > 100 µM
TGI [6]: > 100 µM
TGI [7]: > 100 µM
TGI [8]: > 100 µM
TGI [9]: > 100 µM
TGI [10]: > 100 µM
TGI [11]: > 100 µM
TGI [12]: > 100 µM
TGI [13]: > 100 µM
TGI [14]: > 100 µM
TGI [15]: > 100 µM
TGI [16]: > 100 µM
TGI [17]: > 100 µM
TGI [18]: > 100 µM
TGI [19]: > 100 µM
TGI [20]: > 100 µM
TGI [21]: > 100 µM
TGI [22]: 35.6 µM
TGI [23]: > 100 µM
TGI [24]: > 100 µM
TGI [25]: > 100 µM
TGI [26]: > 100 µM
TGI [27]: > 100 µM
TGI [28]: > 100 µM
TGI [29]: > 100 µM
TGI [30]: > 100 µM
TGI [31]: > 100 µM
TGI [32]: > 100 µM
TGI [33]: > 100 µM
TGI [34]: > 100 µM
TGI [35]: > 100 µM

Cc1cn(C2CC(N(C)C)C(CO)O2)c(=O)[nH]c1=O (stereo not given)
TGI [36]: > 100 µM
TGI [1]: > 100 µM
TGI [37]: > 100 µM
TGI [2]: > 100 µM
TGI [3]: > 100 µM
TGI [4]: > 100 µM
TGI [5]: > 100 µM
TGI [38]: > 100 µM
TGI [39]: > 100 µM
TGI [6]: > 100 µM
TGI [7]: > 100 µM
TGI [8]: > 100 µM
TGI [40]: > 100 µM
TGI [41]: > 100 µM
TGI [42]: > 100 µM
TGI [12]: > 100 µM
TGI [13]: > 100 µM
TGI [14]: > 100 µM
TGI [43]: > 100 µM
TGI [15]: > 100 µM
TGI [19]: > 100 µM
TGI [21]: > 100 µM
TGI [22]: > 100 µM
TGI [23]: > 100 µM
TGI [24]: > 100 µM
TGI [26]: > 100 µM
TGI [27]: > 100 µM
TGI [44]: > 100 µM
TGI [45]: > 100 µM
TGI [46]: > 100 µM
TGI [30]: > 100 µM
TGI [47]: > 100 µM
TGI [31]: > 100 µM
TGI [32]: > 100 µM
TGI [33]: > 100 µM
TGI [34]: > 100 µM
TGI [48]: > 100 µM
TGI [49]: > 100 µM
TGI [35]: > 100 µM

Cc1cc(N(CCC#N)CCC#N)ccc1/C=C(\NC(=O)/C=C/c1ccccc1)C(=O)NN
TGI [36]: > 100 µM
TGI [50]: > 100 µM
TGI [1]: > 90.2 µM
TGI [37]: > 100 µM
TGI [2]: > 100 µM
TGI [3]: > 100 µM
TGI [4]: > 100 µM
TGI [51]: > 78 µM
TGI [5]: > 100 µM
TGI [38]: > 100 µM
TGI [39]: > 100 µM
TGI [6]: > 100 µM
TGI [8]: 63.7 µM
TGI [52]: > 100 µM
TGI [40]: > 100 µM
TGI [9]: > 100 µM
TGI [53]: > 100 µM
TGI [41]: > 100 µM
TGI [10]: > 95.6 µM
TGI [11]: > 92.3 µM
TGI [54]: 80.4 µM
TGI [42]: > 100 µM
TGI [55]: > 100 µM
TGI [12]: > 100 µM
TGI [56]: 77.5 µM
TGI [13]: > 100 µM
TGI [14]: > 100 µM
TGI [57]: > 100 µM
TGI [43]: > 100 µM
TGI [15]: > 90.3 µM
TGI [16]: > 100 µM
TGI [58]: > 100 µM
TGI [17]: > 100 µM
TGI [18]: > 55.7 µM
TGI [19]: > 100 µM
TGI [59]: > 100 µM
TGI [60]: > 100 µM
TGI [20]: > 100 µM
TGI [21]: > 100 µM
TGI [22]: > 100 µM
TGI [23]: > 100 µM
TGI [24]: > 100 µM
TGI [61]: > 100 µM
TGI [25]: > 76.8 µM
TGI [62]: > 100 µM
TGI [26]: > 100 µM
TGI [27]: > 100 µM
TGI [44]: > 100 µM
TGI [28]: > 100 µM
TGI [63]: > 100 µM
TGI [45]: > 100 µM
TGI [29]: > 100 µM
TGI [46]: > 62.9 µM
TGI [30]: > 100 µM
TGI [47]: > 100 µM
TGI [64]: > 100 µM
TGI [31]: > 100 µM
TGI [65]: > 100 µM
TGI [32]: > 100 µM
TGI [66]: > 100 µM
TGI [33]: > 100 µM
TGI [34]: > 82.6 µM
TGI [48]: > 100 µM
TGI [49]: > 100 µM
TGI [35]: > 100 µM
TGI [67]: > 100 µM
TGI [68]: > 100 µM

Cc1ccccc1NC(=O)C1C(=O)N(c2ccccc2C)C(=O)/C1=N\NC(N)=S (stereo not given)
TGI [36]: > 100 µM
TGI [50]: > 100 µM
TGI [1]: > 100 µM
TGI [37]: > 100 µM
TGI [3]: > 100 µM
TGI [4]: > 100 µM
TGI [51]: > 100 µM
TGI [5]: > 100 µM
TGI [39]: > 100 µM
TGI [6]: > 100 µM
TGI [7]: > 100 µM
TGI [8]: > 100 µM
TGI [41]: > 100 µM
TGI [10]: > 100 µM
TGI [42]: > 100 µM
TGI [55]: > 100 µM
TGI [12]: > 100 µM
TGI [13]: > 100 µM
TGI [14]: > 100 µM
TGI [43]: > 100 µM
TGI [17]: > 100 µM
TGI [18]: > 100 µM
TGI [19]: > 100 µM
TGI [59]: > 100 µM
TGI [20]: > 100 µM
TGI [22]: > 100 µM
TGI [24]: > 100 µM
TGI [25]: > 100 µM
TGI [62]: > 100 µM
TGI [26]: > 100 µM
TGI [27]: > 100 µM
TGI [28]: > 100 µM
TGI [45]: > 100 µM
TGI [29]: > 100 µM
TGI [46]: > 100 µM
TGI [30]: > 100 µM
TGI [64]: > 100 µM
TGI [31]: > 100 µM
TGI [32]: > 100 µM
TGI [33]: > 100 µM
TGI [34]: > 100 µM
TGI [48]: > 100 µM
TGI [49]: > 100 µM
TGI [35]: > 100 µM
